Data from patent publication US10875876B2, “Cyclized sulfamoylarylamide derivatives and the use thereof as medicaments for the treatment of hepatitis B” (priority 2015, dated 2020).
Where two headings read alike, the source gives them in different places.

Assays:
[1] = test system: HBV; assay: anti HBV activity, HepG2.117 cell line, intracellular HBV DNA by realtime PCR; type: cell-based; details: HepG2.117 cell line (Tet-off), 3 days of treatment, intracellular HBV DNA quantified by realtime PCR, read-out: HBV-AVE-HepG2.117 EC50
Experimental: The anti HBV activity was measured using the HepG2.117 cell line, a stable, inducibly HBV producing cell line, which replicates HBV in the absence of doxicycline (Tet-off system). For the antiviral assay, HBV replication was induced, followed by a treatment with serially diluted compound in 96-well plates in duplicate. After 3 days of treatment, the antiviral activity was determined by quantification of intracellular HBV DNA using realtime PCR and an HBV specific primer set and probe.

[2] = Cytotoxicity in HepG2 cells, Resazurin assay; details: human, HepG2 cells, TOX-HepG2-4 d CC50 (μM), HepG2 cells incubated for 4 days, viability by Resazurin assay
[3] = Hepatitis B virus, HepG2.117, 72 h

Row | SMILES | EC50 [1, 3] | CC50 at 4 days [2] | EC50 [1]
1 | Cn1cc2c(c1C(=O)Nc1ccc(F)c(F)c1)OCC(C)(CO)NS2(=O)=O (single isomer, unassigned) [Compound 203a, N-(3,4-difluorophenyl)-3-(hydroxymethyl)-3,7-dimethyl-1,1-dioxo-2,4-dihydropyrrolo[3,4-b][1,4,5]oxathiazepine-6-carboxamide] | 94 nM | > 25 µM | 
2 | Cc1cc(C2(C)COc3c(cn(C)c3C(=O)Nc3ccc(F)c(C(F)F)c3)S(=O)(=O)N2)no1 (racemic) [Compound 181, N-[3-(difluoromethyl)-4-fluoro-phenyl]-3,7-dimethyl-3-(5-methylisoxazol-3-yl)-1,1-dioxo-2,4-dihydropyrrolo[3,4-b][1,4,5]oxathiazepine-6-carboxamide] | 8 nM | > 25 µM | 
3 | C[C@H](O)[C@H]1C=Cc2c(cn(C)c2C(=O)Nc2ccc(F)c(C(F)F)c2F)S(=O)(=O)N1 [Compound 186, (3R)—N-[3-(difluoromethyl)-2,4-difluoro-phenyl]-3-[(1S)-1-hydroxyethyl]-7-methyl-1,1-dioxo-2,3-dihydropyrrolo[3,4-f]thiazepine-6-carboxamide] | 11 nM | > 25 µM | 
4 | Cn1cc2c(c1C(=O)Nc1ccc(F)c(F)c1)OC[C@H]([C@H](O)c1ccccc1)NS2(=O)=O [Compound 36, (3R)—N-(3,4-difluorophenyl)-3-[(R)-hydroxy(phenyl)methyl]-7-methyl-1,1-dioxo-3,4-dihydro-2H-pyrrolo[3,4-b][1,4,5]oxathiazepine-6-carboxamide] | 5 nM | > 25 µM | 
5 | C[C@H](O)[C@H]1COc2c(cn(C)c2C(=O)Nc2ccc(F)c(F)c2)S(=O)(=O)N1 [Compound 35, (3R)—N-(3,4-difluorophenyl)-3-[(1S)-1-hydroxyethyl]-7-methyl-1,1-dioxo-3,4-dihydro-2H-pyrrolo[3,4-b][1,4,5]oxathiazepine-6-carboxamide] | 12 nM | > 25 µM | 
6 | Cn1cc2c(c1C(=O)Nc1ccc(F)c(F)c1)CCNS2(=O)=O [Compound 13, N-(3,4-difluorophenyl)-6-methyl-1,1-dioxo-3,4-dihydro-2H-pyrrolo-[3,4-e]thiazine-5-carboxamide] | 110 nM | > 25 µM | 
7 | Cn1cc2c(c1C(=O)Nc1ccc(F)c(C#N)c1F)CCC(C(C)(C)O)NS2(=O)=O (stereo not shown) [Compound 185, N-(3-cyano-2,4-difluoro-phenyl)-3-(1-hydroxy-1-methyl-ethyl)-7-methyl-1,1-dioxo-2,3,4,5-tetrahydropyrrolo[3,4-f]thiazepine-6-carboxamide] | 41 nM | > 25 µM | 
8 | Cn1cc2c(c1C(=O)Nc1ccc(F)c(C(F)F)c1)OC[C@H](Cc1cccnc1)NS2(=O)=O [Compound 75, (3S)—N-[3-(difluoromethyl)-4-fluoro-phenyl]-7-methyl-1,1-dioxo-3-(3-pyridylmethyl)-3,4-dihydro-2H-pyrrolo[3,4-b][1,4,5]oxathiazepine-6-carboxamide] | 7 nM | > 25 µM | 
9 | Cn1cc2c(c1C(=O)Nc1ccc(F)c(F)c1)OC[C@H](Cc1cccnc1)NS2(=O)=O [Compound 38, (3S)—N-(3,4-difluorophenyl)-7-methyl-1,1-dioxo-3-(3-pyridylmethyl)-3,4-dihydro-2H-pyrrolo[3,4-b][1,4,5]oxathiazepine-6-carboxamide] | 5 nM | > 25 µM | 
10 | CC[C@H](C)[C@H]1COc2c(cn(C)c2C(=O)Nc2ccc(F)c(F)c2)S(=O)(=O)N1 [Compound 23, (3 S)—N-(3,4-difluorophenyl)-7-methyl-3-[(1S)-1-methylpropyl]-1,1-dioxo-3,4-dihydro-2H-pyrrolo[3,4-b][1,4,5]oxathiazepine-6-carboxamide] | 5 nM | 10.6 µM | 
11 | C[C@H]1C=Cc2c(cn(C)c2C(=O)Nc2ccnc(Br)c2)S(=O)(=O)N1 (single isomer, unassigned) [Compound 50, (3*S)—N-(2-bromo-4-pyridyl)-3,7-dimethyl-1,1-dioxo-2,3-dihydropyrrolo[3,4-f]thiazepine-6-carboxamide] | 2 nM | > 25 µM | 
12 | CC(C)[C@H]1Oc2c(cn(C)c2C(=O)Nc2ccc(F)c(C#N)c2)S(=O)(=O)N[C@@H]1CO [compound 239] | > 500 nM | > 25 µM | 
13 | Cn1cc2c(c1C(=O)Nc1ccc(F)c(C#N)c1)OC[C@H](C(O)C1CC1)NS2(=O)=O (stereo partly drawn) [Compound 120a, (3R)—N-(3-cyano-4-fluoro-phenyl)-3-[cyclopropyl(hydroxy)methyl]-7-methyl-1,1-dioxo-3,4-dihydro-2H-pyrrolo[3,4-b][1,4,5]oxathiazepine-6-carboxamide] | 7 nM | > 25 µM | 
14 | C[C@H](O)[C@@H]1COc2c(cn(C)c2C(=O)Nc2ccc(F)c(F)c2)S(=O)(=O)N1 [Compound 37, (3S)—N-(3,4-difluorophenyl)-3-[(1S)-1-hydroxyethyl]-7-methyl-1,1-dioxo-3,4-dihydro-2H-pyrrolo[3,4-b][1,4,5]oxathiazepine-6-carboxamide] | 200 nM | > 25 µM | 
15 | CC1CCc2c(cn(C)c2C(=O)Nc2ccc(F)c(F)c2)S(=O)(=O)N1 (single isomer, unassigned) [Compound 10a, N-(3,4-difluorophenyl)-3,7-dimethyl-1,1-dioxo-2,3,4,5-tetrahydropyrrolo[3,4-f]thiazepine-6-carboxamide] |  | > 25 µM | 220 nM
16 | Cn1cc2c(c1C(=O)Nc1ccc(F)c(F)c1)OC[C@@H](c1ccccc1)NS2(=O)=O [Compound 25, (3R)—N-(3,4-difluorophenyl)-7-methyl-1,1-dioxo-3-phenyl-3,4-dihydro-2H-pyrrolo[3,4-b][1,4,5]oxathiazepine-6-carboxamide] | 22 nM | > 25 µM | 
17 | CC(C)[C@@H]1COc2c(ccc(F)c2C(=O)Nc2ccc(F)c(F)c2)S(=O)(=O)N1 [Compound 48, (3R)—N-(3,4-difluorophenyl)-7-fluoro-3-isopropyl-1,1-dioxo-3,4-dihydro-2H-5,1λ^6,2-benzoxathiazepine-6-carboxamide] | 84 nM | > 25 µM | 
18 | Cn1cc2c(c1C(=O)Nc1ccnc(C(F)(F)F)c1)CCC(C(F)(F)F)NS2(=O)=O (racemic) [Compound 59, 7-methyl-1,1-dioxo-3-(trifluoromethyl)-N-[2-(trifluoromethyl)-4-pyridyl]-2,3,4,5-tetrahydropyrrolo[3,4-f]thiazepine-6-carboxamide] | 240 nM | > 25 µM | 
19 | Cn1cc2c(c1C(=O)Nc1ccc(F)c(F)c1)OC[C@H](c1ccccc1)NS2(=O)=O [Compound 26, (3S)—N-(3,4-difluorophenyl)-7-methyl-1,1-dioxo-3-phenyl-3,4-dihydro-2H-pyrrolo[3,4-b][1,4,5]oxathiazepine-6-carboxamide] | 27 nM | > 25 µM | 
20 | Cc1cc(NC(=O)c2c3c(cn2C)S(=O)(=O)NC(C(C)C)CC3)ccc1F (stereo not shown) [Compound 109, N-(4-fluoro-3-methyl-phenyl)-3-isopropyl-7-methyl-1,1-dioxo-2,3,4,5-tetrahydropyrrolo[3,4-f]thiazepine-6-carboxamide] | 3 nM | > 25 µM | 
21 | Cn1cc2c(c1C(=O)Nc1ccc(F)c(F)c1)OCC1(COC1)NS2(=O)=O [Compound 24, N-(3,4-difluorophenyl)-7-methyl-1,1-dioxo-spiro[2,4-dihydropyrrolo-[3,4-b][1,4,5]oxathiazepine-3,3′-oxetane]-6-carboxamide] | 68 nM | > 25 µM | 
22 | Cn1ccc(CC2(C)COc3c(cn(C)c3C(=O)Nc3ccnc(C(F)F)c3)S(=O)(=O)N2)n1 (single isomer, unassigned) [Compound 217a, N-[2-(difluoromethyl)-4-pyridyl]-3,7-dimethyl-3-[(1-methylpyrazol-3-yl)methyl]-1,1-dioxo-2,4-dihydropyrrolo[3,4-b][1,4,5]oxathiazepine-6-carboxamide] |  | > 25 µM | 25 nM
23 | Cn1cc2c(c1C(=O)Nc1ccc(F)c(C#N)c1)OC[C@](C)(Cc1ccccc1)NS2(=O)=O [Compound 156, (3S)-3-benzyl-N-(3-cyano-4-fluoro-phenyl)-3,7-dimethyl-1,1-dioxo-2,4-dihydropyrrolo[3,4-b][1,4,5]oxathiazepine-6-carboxamide] | 9 nM | > 25 µM | 
24 | Cn1cc2c(c1C(=O)Nc1ccc(F)c(C#N)c1)CCC(C(C)(C)O)NS2(=O)=O (single isomer, unassigned) [Compound 116a, N-(3-cyano-4-fluoro-phenyl)-3-(1-hydroxy-1-methyl-ethyl)-7-methyl-1,1-dioxo-2,3,4,5-tetrahydropyrrolo[3,4-f]thiazepine-6-carboxamide] |  | > 25 µM | 22 nM
25 | Cc1cc(NC(=O)c2c3c(cn2C)S(=O)(=O)N[C@@H]([C@H](C)O)CO3)ccc1F [Compound 200, (3R)—N-(4-fluoro-3-methyl-phenyl)-3-[(1S)-1-hydroxyethyl]-7-methyl-1,1-dioxo-3,4-dihydro-2H-pyrrolo[3,4-b][1,4,5]oxathiazepine-6-carboxamide] | 84 nM | > 25 µM | 
26 | C[C@H](O)[C@H]1CCc2c(cn(C)c2C(=O)Nc2ccc(F)c(C#N)c2F)S(=O)(=O)N1 [Compound 159, (3R)—N-(3-cyano-2,4-difluoro-phenyl)-3-[(1S)-1-hydroxyethyl]-7-methyl-1,1-dioxo-2,3,4,5-tetrahydropyrrolo[3,4-f]thiazepine-6-carboxamide] | 14 nM | > 25 µM | 
